Assay results reported in patent US20120264603A1, “ATTACHMENT AND RETENTION FORMULATIONS FOR BIOLOGICALLY ACTIVE ORGANIC COMPOUNDS” (priority 2010, published 2012).

Test: Water solubility of sulfentrazone as a function of pH
Assay type: physicochemical

Cc1nn(-c2cc(NS(C)(=O)=O)c(Cl)cc2Cl)c(=O)n1C(F)F [sulfentrazone]
solubility in water (at 7.5 pH): soluble in water | solubility in water (pH ~5): sparingly soluble in water
